Tests used:
[1] = tested on: BM stromal cells (BMSCs); test: Viability of bone marrow stromal cells (MTT); assay type: cell-based, human; details: 0.5 μM
Description: Primary MM patient samples were freshly isolated from bone marrow aspirates from patients undergoing diagnostic or restaging bone marrow aspirates under an IRB-approved protocol. MM cells were purified using custom-made RosetteSep cocktail of monoclonal antibodies (mAb's) (StemCell Technologies Inc, Vancouver, Canada) for negative selection of CD138^+ MM cells. The CD138^− fraction of the MM cell purification process was cultured in 20% FBS-supplemented media for isolation of the adherent bone marrow stromal cells. Peripheral blood B cells were isolated by ficoll-density centrifugation of peripheral blood samples from MM patients. […] […] At the end of each treatment, cells were incubated with 1 mg/ml MTT for 4 hours at 37° C.; a mixture of isopropanol and 1N HCl (23:2, v/v) was then added under vigorous pipetting to dissolve the formazan crystals. Dye absorbance (A) in viable cells was measured at 570 nm, with 630 nm as a reference wavelength. Cell survival was estimated as a percentage of the value of untreated controls. All experiments were repeated at least three times, and each experimental condition was repeated at least in quadruplicate wells in each experiment.

[2] = tested on: peripheral blood B-cells; test: Viability of peripheral blood B-cells; assay type: cell-based, human; details: 0.5 μM
Description: Primary MM patient samples were freshly isolated from bone marrow aspirates from patients undergoing diagnostic or restaging bone marrow aspirates under an IRB-approved protocol. MM cells were purified using custom-made RosetteSep cocktail of monoclonal antibodies (mAb's) (StemCell Technologies Inc, Vancouver, Canada) for negative selection of CD138^+ MM cells. The CD138^− fraction of the MM cell purification process was cultured in 20% FBS-supplemented media for isolation of the adherent bone marrow stromal cells. Peripheral blood B cells were isolated by ficoll-density centrifugation of peripheral blood samples from MM patients.
To assess whether MM cells are more susceptible to inhibition of IGF-1R signaling, than normal cells in their immediate environment, primary MM cells, normal bone marrow stromal cells and peripheral blood B-cells, were exposed to 0.5 μM NVP-AEW541.

[3] = tested on: MM1S-LucNeo cells; test: Orthotopic mouse model of multiple myeloma, bioluminescence imaging; assay type: in vivo; details: 50 mg/kg PO BID, after 8 days of treatment, p=0.58
Description: MM1S-LucNeo cells were created by transducing MM1S cells with a retrovirus encoding the firefly luciferase coding region fused to neomycin phosphotransferase (pMMP-LucNeo). Transduced cells were selected by growth in medium (RPMI, 10% FBS, penicillin/streptomycin) containing G418 at an effective concentration of 1 mg/ml.
NOD-SCID mice (Jackson Laboratory) were sublethally irradiated with 300 rads from a ^137CS source. Three hours after irradiation, a total of 5×10^6 MM1S-LucNeo cells in mid-logarithmic growth phase were injected via tail vein into each mouse in a volume of 300 μL of PBS. Mice were maintained under sterile conditions.
Bioluminescence imaging was performed with a Xenogen In Vivo Imaging System (IVIS 100). Mice were anesthetized by IP injection of ketamine 150 mg/kg and xylazine 12 mg/kg, and simultaneously D-luciferin 50 mg/kg was administered by IP injection. Imaging was performed 15 minutes after D-luciferin injection with a setting of 2 minutes, and a bin setting of 2. Mice were allowed to recover under isothermic conditions. Mice were imaged weekly beginning 2 weeks after tumor inoculation. Mice with increasing tumor burden were divided into 2 statistically equivalent cohorts, and treatment was started 4 weeks after tumor inoculation. […]

For `Nc1ncnc2c1c(-c1cccc(OCc3ccccc3)c1)cn2[C@H]1C[C@@H](CN2CCC2)C1` [NVP-AEW541], the “viability of bone marrow stromal cells” value [1] was “no effect on the viability”, the “viability of peripheral blood B-cells” value [2] was “no effect on the viability” and the body weight [3] was “no difference in body weight”.

From patent US7781393B2, “Methods for inhibiting tumor cell growth” (Dana-Farber Cancer Institute, Inc., priority 2004, dated 2010)
